Laboratory results published in patent US20260355332A1, “ANTIBODY-DRUG CONJUGATE, AND PREPARATION METHOD THEREFOR AND USE THEREOF” (MEDILINK THERAPEUTICS (SUZHOU) CO., LTD., priority 2022, published 2026).
Entries after “also recorded” stand apart in the source; their conditions may differ.

Tested on: tumor cells
Assay: Assay 2: inhibitory activity of bioactive molecules on tumor cells (CCK8), overall
Assay type: cell-based
Conditions: Example 6.2; multiple tumor cell lines
Description: Firstly, tumor cells NUCG-4, PC-9, HT29, NCI-H358, KYSE520, A431, and A549 were cultured. The bioactive molecules or fragments of the present disclosure were co-cultured with the tumor cells, and then a CCK8 reagent (Dojindo China Co., Ltd., Cat: CKO4, Lot: JJ744) was added. Readings were taken using a microplate reader (manufacturer: Molecular Devices, model: SpectraMax M2) (detection wavelength: 450 nm) to determine the activity of dehydrogenase in the mitochondria, so as to evaluate the inhibitory effects of the bioactive molecules on cell proliferation.
The in vitro cell activity was assayed as follows: Tumor cells were digested by a conventional method using trypsin, collected in a tube, counted, resuspended in the corresponding assay medium (containing 2% FBS), and added to a 96-well plate at 5000-10000 cells/well. Bioactive molecules diluted with DMSO (starting at a concentration of 10 μM, with a 3-fold dilution (12 concentration gradients)) were added to the 96-well plate at 100 μL/well, and the plate was incubated at 37° C. with 5% CO2 for 3-4 days. Subsequently, 20 μL of CCK8 reagent was added to each well, and the mixture was allowed to react for 2-6 h. Readings were then taken using a microplate reader (detection wavelength: 450 nm).

| Compound | tumor cell-killing effect (in words) |
| --- | --- |
| CC[C@@]1(O)C(=O)OCc2c1cc1n(c2=O)Cc2c-1nc1cc3c(cc1c2CCCO)OCO3 [Example A1.9, (S)-7-ethyl-7-hydroxy-14-(3-hydroxypropyl)-10,13-dihydro-11H-[1,3]dioxolo[4,5-g]pyrano[3′,4′:6,7]indolizino[1,2-b]quinoline-8,11(7H)-dione] | had tumor cell-killing effects; also recorded: stronger tumor-killing effect than Dxd in multiple tumor cell lines |
| CC[C@@]1(O)C(=O)OCc2c1cc1n(c2=O)Cc2c-1nc1cc3c(cc1c2CCCOCNC(=O)CN)OCO3 [Example B1.14, (S)-2-amino-N-((3-(7-ethyl-7-hydroxy-8,11-dioxo-7,8,11,13-tetrahydro-10H-[1,3]dioxolo[4,5-g]pyrano[3′,4′:6,7]indolizino[1,2-b]quinolin-14-yl)propoxy)methyl)acetamide] | had tumor cell-killing effects |
